From patent publication US20240109917A1 (ACTELION PHARMACEUTICALS LTD, priority 2020, published 2024)

How the values were obtained:
[1] = target: VEGFR2, unphosphorylated (Homo sapiens (Human), UniProt P35968); experiment: VEGFR ADP GLO Assay; assay type: biochemical
[2] = target: His6-TEV-PDGFRβ (557-1016) (Homo sapiens (Human), UniProt P09619); experiment: PDGFRβ HTRF Assay; assay type: biochemical; conditions: read-out: PDGFR HTRF IC50
Summary of the method: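 Human PDGFRβ (557-1016) pre-incubated with compound for 30 min at RT in pH 7.5 HEPES/MgCl2/EGTA/Brij-35/DTT buffer. Reaction started with ATP and TK-biotin peptide, run 3 h at RT, then quenched with EDTA-containing Eu-cryptate antibody/streptavidin-XL665. HTRF 665/620 nm ratio read after 60 min; percent inhibition relative to DMSO and 10 μM imatinib controls.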

Chain of His6-TEV-PDGFRβ (557-1016) (P09619 557-1016): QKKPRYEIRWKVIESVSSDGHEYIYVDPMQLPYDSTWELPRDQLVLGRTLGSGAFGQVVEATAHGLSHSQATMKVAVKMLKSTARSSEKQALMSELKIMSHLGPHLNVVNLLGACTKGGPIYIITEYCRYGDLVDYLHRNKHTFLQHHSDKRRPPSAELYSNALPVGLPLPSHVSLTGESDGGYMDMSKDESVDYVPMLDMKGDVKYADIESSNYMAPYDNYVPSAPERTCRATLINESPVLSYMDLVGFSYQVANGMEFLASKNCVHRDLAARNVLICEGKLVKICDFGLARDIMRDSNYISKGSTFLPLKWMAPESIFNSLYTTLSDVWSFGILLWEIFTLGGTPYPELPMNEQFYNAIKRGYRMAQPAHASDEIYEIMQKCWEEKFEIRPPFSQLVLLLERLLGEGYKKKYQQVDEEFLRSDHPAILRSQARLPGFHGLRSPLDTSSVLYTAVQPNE
Chain of VEGFR2, unphosphorylated (P35968 20-1356): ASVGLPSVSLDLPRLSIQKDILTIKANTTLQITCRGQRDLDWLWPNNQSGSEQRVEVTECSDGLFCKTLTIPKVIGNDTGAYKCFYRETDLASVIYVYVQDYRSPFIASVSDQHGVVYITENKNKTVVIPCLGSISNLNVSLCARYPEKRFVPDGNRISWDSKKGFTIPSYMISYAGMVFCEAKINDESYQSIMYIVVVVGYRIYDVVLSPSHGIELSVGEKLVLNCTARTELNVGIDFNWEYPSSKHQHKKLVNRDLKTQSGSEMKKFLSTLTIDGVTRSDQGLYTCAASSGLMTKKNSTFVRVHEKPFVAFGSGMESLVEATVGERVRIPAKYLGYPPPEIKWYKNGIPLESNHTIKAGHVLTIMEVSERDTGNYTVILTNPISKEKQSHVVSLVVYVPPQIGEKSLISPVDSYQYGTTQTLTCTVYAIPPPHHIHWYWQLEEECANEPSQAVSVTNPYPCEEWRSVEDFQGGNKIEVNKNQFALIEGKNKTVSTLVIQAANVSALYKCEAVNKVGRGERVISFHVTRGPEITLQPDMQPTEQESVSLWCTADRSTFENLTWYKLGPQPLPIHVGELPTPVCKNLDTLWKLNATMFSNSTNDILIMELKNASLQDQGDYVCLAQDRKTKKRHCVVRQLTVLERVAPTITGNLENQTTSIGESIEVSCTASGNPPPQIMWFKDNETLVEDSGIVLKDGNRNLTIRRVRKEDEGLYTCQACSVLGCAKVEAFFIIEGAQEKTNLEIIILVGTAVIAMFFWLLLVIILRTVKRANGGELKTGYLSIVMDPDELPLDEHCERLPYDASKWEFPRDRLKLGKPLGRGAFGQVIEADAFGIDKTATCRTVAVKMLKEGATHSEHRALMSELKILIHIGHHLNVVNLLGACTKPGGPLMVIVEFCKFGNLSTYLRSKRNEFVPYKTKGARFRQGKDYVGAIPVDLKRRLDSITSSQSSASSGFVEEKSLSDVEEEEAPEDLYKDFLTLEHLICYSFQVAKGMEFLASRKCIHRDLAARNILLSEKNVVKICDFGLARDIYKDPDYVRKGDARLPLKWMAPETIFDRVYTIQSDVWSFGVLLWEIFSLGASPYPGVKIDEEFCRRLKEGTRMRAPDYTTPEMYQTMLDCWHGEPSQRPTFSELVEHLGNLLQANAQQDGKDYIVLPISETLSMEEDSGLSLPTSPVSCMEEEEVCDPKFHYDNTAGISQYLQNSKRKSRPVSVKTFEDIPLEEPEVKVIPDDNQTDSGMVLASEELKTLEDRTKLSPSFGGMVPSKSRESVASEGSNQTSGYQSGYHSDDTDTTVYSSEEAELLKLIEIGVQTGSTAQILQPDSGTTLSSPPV

| Compound | IC50 [1] [nM] | IC50 [2] [nM] |
| --- | --- | --- |
| Cc1ncc(NC(=O)CN2CC(C)(C)C2)cc1NC(=O)c1cnn2cc(-c3ccc(CO)o3)sc12 [Example 292, N-(5-(2-(3,3-dimethylazetidin-1-yl)acetamido)-2-methylpyridin-3-yl)-2-(5-(hydroxymethyl)furan-2-yl)pyrazolo[5,1-b]thiazole-7-carboxamide] | > 7500 | 0.3 |
| Cc1ncc(NC(=O)C[C@@H]2CCCCN2C(C)C)cc1NC(=O)c1cnn2cc(-c3cnn(C)c3)sc12 [Example 305, (S)—N-(5-(2-(1-isopropylpiperidin-2-yl)acetamido)-2-methylpyridin-3-yl)-2-(1-methyl-1H-pyrazol-4-yl)pyrazolo[5,1-b]thiazole-7-carboxamide] | > 7500 | 2.1 |
| COc1ncccc1-c1cn2ncc(C(=O)Nc3cc(NC(=O)CN4CCO[C@H](C)C4)cnc3C)c2s1 [Example 318, (R)-2-(2-methoxypyridin-3-yl)-N-(2-methyl-5-(2-(2-methylmorpholino)acetamido)pyridin-3-yl)pyrazolo[5,1-b]thiazole-7-carboxamide] | > 7500 | 0.3 |
| Cc1ncc(NC(=O)CN2CCCC2(C)C)cc1NC(=O)c1cnn2cc(-n3ncc4cccnc43)sc12 [Example 259, N-(5-(2-(2,2-dimethylpyrrolidin-1-yl)acetamido)-2-methylpyridin-3-yl)-2-(1H-pyrazolo[3,4-b]pyridin-1-yl)pyrazolo[5,1-b]thiazole-7-carboxamide] | > 7500 | 0.4 |
| Cc1ncc(NC(=O)CN(C)C2CCOCC2)cc1NC(=O)c1cnn2cc(-c3cnn(CC#N)c3)sc12 [Example 299, 2-(1-(cyanomethyl)-1H-pyrazol-4-yl)-N-(2-methyl-5-(2-(methyl(tetrahydro-2H-pyran-4-yl)amino)acetamido)pyridin-3-yl)pyrazolo[5,1-b]thiazole-7-carboxamide] | > 7500 | 0.5 |
| COc1ncccc1-c1cn2ncc(C(=O)Nc3cc(NC(=O)C[C@@H]4CCCN4C(C)C)cnc3C)c2s1 [Example 323, (S)—N-(5-(2-(1-isopropylpyrrolidin-2-yl)acetamido)-2-methylpyridin-3-yl)-2-(2-methoxypyridin-3-yl)pyrazolo[5,1-b]thiazole-7-carboxamide] | > 7500 | 0.2 |
| Cc1ncc(NC(=O)CN2CCC3(CCCO3)C2)cc1NC(=O)c1cnn2cc(-c3cnn(C)c3)sc12 (centres unmarked) [Example 21, N-(5-(2-(1-oxa-7-azaspiro[4.4]nonan-7-yl)acetamido)-2-methylpyridin-3-yl)-2-(1-methyl-1H-pyrazol-4-yl)pyrazolo[5,1-b]thiazole-7-carboxamide] | > 7500 | 0.7 |
| COc1ncccc1-c1cn2ncc(C(=O)Nc3cc(NC(=O)CN4CCCC5(CC5)C4)cnc3C)c2s1 [Example 321, N-(5-(2-(5-azaspiro[2.5]octan-5-yl)acetamido)-2-methylpyridin-3-yl)-2-(2-methoxypyridin-3-yl)pyrazolo[5,1-b]thiazole-7-carboxamide] | > 7500 | 0.2 |
| CC(=O)Nc1cc(-c2cn3ncc(C(=O)Nc4cc(NC(=O)CN5CC(C)(C)C5)cnc4C)c3s2)ccn1 [Example 273, 2-(2-acetamidopyridin-4-yl)-N-(5-(2-(3,3-dimethylazetidin-1-yl)acetamido)-2-methylpyridin-3-yl)pyrazolo[5,1-b]thiazole-7-carboxamide] | > 7500 | 0.2 |
| Cc1ncc(NC(=O)CC23CCCN2CCC3)cc1NC(=O)c1cnn2cc(-c3cnn(C)c3)sc12 [Example 302, 2-(1-methyl-1H-pyrazol-4-yl)-N-(2-methyl-5-(2-(tetrahydro-1H-pyrrolizin-7a(5H)-yl)acetamido)pyridin-3-yl)pyrazolo[5,1-b]thiazole-7-carboxamide] | > 7500 | 1.2 |
